No end group written: not given here. Where only a bound is given, the exact number is not on record here.

Assay [1] has as its system free fat cells (adipocytes). Description: Adipocyte / free fat cell (FFC) assay, 3H glucose incorporation into lipid. Conditions: FFC assay potency grade; 0, + to ++++++, −.
Experimental: Incorporation of ^3H into the lipid phase was determined by partitioning of lipid phase into a scintillant mixture, which excludes water-soluble ^3H products.
The next assay deals with IGF-1R (Homo sapiens, UniProt P08069). Description: Phage ELISA, binding of phage clones to IGF-1R (ratio over background). The note with it: ratio of IGF-1R divided by ratio of IR. Background: ELISA stands for enzyme-linked immunosorbent assay.
Another assay has as its target IR (Homo sapiens, UniProt P06213). Description: Phage ELISA, binding of phage clones to IR (ratio over background). Conditions: ratio of IR divided by ratio of IGF-1R.

Experimental for IGF-1R: (§1) HIT indicates binder; CAND indicates binder candidate; LDH indicates binding to lactate dehydrogenase (negative control); Sp/Irr indicates the ratio of specific binding over non-specific binding.
(§2) Sp/Irr=the ratio of specific binding over non-specific binding; LDH=lactate dehydrogenase (negative control).
(§3) For phage pools, cells from frozen stocks were grown and phage were prepared as described above. For analysis of individual clones, colonies were picked and phage prepared as described above. Subsequent steps were the same for pooled and clonal phage. Microtiter wells were coated and blocked as described above. […] Phage resuspended in MPBS (PBS containing 2% non-fat milk) were added to wells (100 μl/well) and incubated at room temperature for 1 h. The phage solution was then removed, and the wells were washed three times with PBS at room temperature.
(§4) Anti-M13 antibody conjugated to horseradish peroxidase (Pharmacia Biotech) was diluted 1:3000 in MPBS and added to each well (100 μl/well). Incubation was for another hour at room temperature, followed by PBS washes as described. Color was developed by addition of ABTS solution (100 μl/well; Boehringer). […] Data points were averaged after subtraction of appropriate blanks. A clone was considered “positive” if the A405 of the well was ≧2-fold over background.
Experimental for IR: as §1, §2, §3, §4

Regarding `CC(C)[C@H](NC(=O)[C@H](Cc1ccccc1)NC(=O)[C@H](Cc1c[nH]c2ccccc12)NC(=O)[C@H](CC(=O)O)NC(=O)[C@H](Cc1ccc(O)cc1)NC(=O)[C@H](Cc1ccccc1)NC(=O)[C@H](CC(N)=O)NC(=O)[C@H](CCC(=O)O)NC(=O)[C@H](Cc1c[nH]cn1)NC(=O)[C@@H](N)Cc1ccccc1)C(=O)N[C@@H](CCCNC(=N)N)C(=O)N[C@@H](CCC(N)=O)C(=O)N[C@H](C(=O)N[C@@H](CO)C(=O)N[C@@H](CCCCN)C(=O)N[C@@H](CCCCN)C(=O)NC[C@H](NC(=O)[C@H](CCCCN)NC(=O)[C@H](CCCCN)NC(=O)[C@H](CO)NC(=O)[C@@H](NC(=O)[C@H](CCC(N)=O)NC(=O)[C@H](CCCNC(=N)N)NC(=O)[C@@H](NC(=O)[C@H](Cc1ccccc1)NC(=O)[C@H](Cc1c[nH]c2ccccc12)NC(=O)[C@H](CC(=O)O)NC(=O)[C@H](Cc1ccc(O)cc1)NC(=O)[C@H](Cc1ccccc1)NC(=O)[C@H](CC(N)=O)NC(=O)[C@H](CCC(=O)O)NC(=O)[C@H](Cc1c[nH]cn1)NC(=O)[C@@H](N)Cc1ccccc1)C(C)C)C(C)C)C(=O)O)C(C)C` [Peptide S128], the FFC result in assay [1] is reported as “++”. PVGVQGFYEGLSRLVLGRGGW [20E2B-4-F8-IGFR]: the “Comparisons IGF-1R/IR” value on IGF-1R came out at 9.7. Further, at IR, the “Comparisons IR/IGF-1R” value is given as 0.1.

As to “QAVQPGFHEEFYDWFVRQVSTGVGGG [H2CA-4-H4-IGFR]”, the “Comparisons IGF-1R/IR” value on IGF-1R is listed as 4.2. Besides, the “Comparisons IR/IGF-1R” value on IR amounted to 0.2. Turning to “QFYGCLLDLSLGVPSFGWRRRCITA [20C-3-A4-IGFR]”, the “Comparisons IGF-1R/IR” value on IGF-1R is on record as 7.6. Further, the “Comparisons IR/IGF-1R” value at IR turned out to be 0.1.

In the case of “QGGSASFYDAIDRLLRMRIGG [20E2A-4-F11-IGFR]”, the “Comparisons IGF-1R/IR” value at IGF-1R amounted to 14.6. The “Comparisons IR/IGF-1R” value at IR is recorded as 0.1. Turning to “QGNVLDFYGWIGRLLAKQGSD [20E2B-3-D12-IGFR]”, the “Comparisons IGF-1R/IR” value on IGF-1R is reported as 7.3. On IR, the “Comparisons IR/IGF-1R” value turned out to be 0.1.

As for QPAPDGFYSALMKLIGRGGVS [20E2B-3-C8-IGFR], the “Comparisons IGF-1R/IR” value at IGF-1R was 8.9. Further, the “Comparisons IR/IGF-1R” value on IR worked out at 0.1. For QPDHSYFYSLLQELVGSEERL [20E2B-4-F9-IGFR], in that order: 7.7 and 0.1. For QSGSGDFYDWLSRLIRGNGDG [20E2Bβ-3-C7-IR], in that order: 2.0 and 0.5. For “QSPVGSSHEDFYDWFFRQVAQSGAHQ [H2CA-3-D6-IGFR]”, in that order: 4.0 and 0.3. In the case of “RAGSSDFHEDFYEWFVRQVSLSLKGK [H2CA-2-B9-IGFR]”, the “Comparisons IGF-1R/IR” value at IGF-1R is reported as 4.2. Also, the “Comparisons IR/IGF-1R” value at IR is given as 0.2. In the case of “RCEEKQAEVGPSSDPFYHKMSELLGCR [Peptide B6Hα-3-E9-IR]”, the “Comparisons IGF-1R/IR” value at IGF-1R is reported as 14.2. The “Comparisons IR/IGF-1R” value on IR is recorded as 0.1. For “RCGDEEGWQENRRDDPFYHKLSELFGGC [Peptide B6Hα-3-E5-IR]”, in that order: 2.9 and 0.3.

Take “RCGRELYHSTFYDWFDRQVAGRTCPS [H2CA-1-A7-IGFR]”: on IGF-1R, the “Comparisons IGF-1R/IR” value came out at 3.7. Besides, the “Comparisons IR/IGF-1R” value at IR is on record as 0.3. As for “RCGRW*AEMGAGDDPFYHKLSELVCG (RCGRWXAEMGAGDDPFYHKLSELVCG; not fully specified; X: residue not identified in the source; cysteine pairing not given here) [Peptide B6Hα-2-C4-IR]”, the “Comparisons IGF-1R/IR” value with IGF-1R is 11.0. Moreover, the “Comparisons IR/IGF-1R” value in the assay with IR came out at 0.1. As to RCQGTGFYTCIQELIGFGDPD [20E2B-4-H9-IGFR], at IGF-1R, the “Comparisons IGF-1R/IR” value is 5.6. In addition, the “Comparisons IR/IGF-1R” value on IR came to 0.2. For RFDPFYSYFVNLLGASA [NNRPγ-4-A7-IR], in that order: 4.9 and 0.2. For “RFSTDGFYQYLLALVGGGPVG [20E2B-1-A11-IGFR]”, in that order: 9.7 and 0.1. As for “RGAVAGFHDQFYDWFDRQVSRVHKFG [H2CA-4-H9-IGFR]”, the “Comparisons IGF-1R/IR” value at IGF-1R was 3.0. Also, the “Comparisons IR/IGF-1R” value on IR is recorded as 0.3. For “RGIVAMVEATEVGSDHPFYHKLSELVQGS [Peptide B6Hα-2-C7-IR]”, in that order: 6.7 and 0.1. For “RGKTAAVIVGRPADPFYHKLSELLQGG [Peptide B6Hα-3-E8-IR]”, in that order: 4.8 and 0.2. Turning to “RGMKEEVLVGGSTDPFYHKLSELLQGS [B6Hα-3-F11-IR]”, the “Comparisons IGF-1R/IR” value on IGF-1R stood at 11.7. Further, the “Comparisons IR/IGF-1R” value on IR came out at 0.1.

Take “RGQSDAFYSGLWALIGLSDG [Peptide R20β-4-A6-IR]”: the “Comparisons IGF-1R/IR” value on IGF-1R came to 17.3. Moreover, the “Comparisons IR/IGF-1R” value on IR is recorded as 0.1. In the case of RLFYCGIQALGANLGYSGCV [R20α-4-20A12-IR], on IGF-1R, the “Comparisons IGF-1R/IR” value turned out to be 16.6. In addition, on IR, the “Comparisons IR/IGF-1R” value was 0.1.

With “RQGTGSFYLMLEQLLVGARGP [20E2B-4-G11-IGFR]”, the “Comparisons IGF-1R/IR” value on IGF-1R is reported as 7.0. The “Comparisons IR/IGF-1R” value at IR was found to be 0.1. As for “SACQFDCHENFYDWFARQVSGGAAYG [H2CA-4-H8-IGFR]”, the “Comparisons IGF-1R/IR” value on IGF-1R stood at 9.4. Moreover, the “Comparisons IR/IGF-1R” value on IR stood at 0.1. For “SGAKVIVVTGDSGDPFYHKLSELLQGS [B6Hα-2-C10-IR]”, in that order: 5.3 and 0.2. For SQAGSAFYAWFDQVLRTVHSA [20E2Bβ-4-G6-IR], in that order: 3.3 and 0.3.

“SRAKVEAEMPDSGDPFYHKLSELLASG [Peptide B6Hα-1-A3-IR]”: the “Comparisons IGF-1R/IR” value at IGF-1R was 3.3. Besides, the “Comparisons IR/IGF-1R” value at IR came out at 0.3. For “SRVAATKEKRPSDDPFYHKLSELLQGS [Peptide B6Hα-3-F7-IR]”, in that order: 3.1 and 0.3.

As for “SSCDGAGHESFYEWFVRQVSGCRSV [H2CA-3-C8-IGFR]”, the “Comparisons IGF-1R/IR” value at IGF-1R stood at 4.8. In addition, the “Comparisons IR/IGF-1R” value at IR is 0.2. For “SSETAKMVTGTRDDPFYHKLSELVQGS [Peptide B6Hα-D8-IR]”, in that order: 3.0 and 0.3. For “SSIGGGEHENFYDWFSRQLSQSPPLK [H2CA-4-F7-IGFR]”, in that order: 4.1 and 0.2. Regarding “SSYGCDGFYLMLFSLGLVASQELEC [20C-3-A1-IGFR]”, the “Comparisons IGF-1R/IR” value on IGF-1R was 13.7. Besides, the “Comparisons IR/IGF-1R” value on IR was found to be 0.1. On to “TFYSCLASLLTGTPQPNRGPWERCR [20C-3-G3-IGFR]”, for which the “Comparisons IGF-1R/IR” value on IGF-1R is 27.0. Also, the “Comparisons IR/IGF-1R” value on IR was below 0.1. For “TLDGGSFEEQFYDWFVRQLSYRTNPD [H2CA-4-G11-IGFR]”, in that order: 3.9 and 0.3.

As for TLRSPTFYDWLEMVLTHGQGG [20E2B-1-A8-IGFR], the “Comparisons IGF-1R/IR” value at IGF-1R was found to be 5.0. Further, on IR, the “Comparisons IR/IGF-1R” value is reported as 0.2.

Consider “TSEVQRRSQDNFYDWFVAQVA [Peptide A6S-3-E2-IR]”, for which, on IGF-1R, the “Comparisons IGF-1R/IR” value worked out at 2.5. Further, the “Comparisons IR/IGF-1R” value on IR was 0.4. For “VATSQGFYSGLSELLQGGGNV [20E2B-3-E12-IGFR]”, the “Comparisons IGF-1R/IR” value at IGF-1R came to 7.3. Besides, the “Comparisons IR/IGF-1R” value at IR is on record as 0.1. For the compound “VDTPAQVGWNRLWSVGPGEHWYTDDPFYH*LSELLRESGA [Peptide B6L-3-G6-IR]”, the “Comparisons IGF-1R/IR” value with IGF-1R is recorded as 1.4. Further, the “Comparisons IR/IGF-1R” value with IR worked out at 0.7.

For the compound “VERSASSQDGNFYDWFVVQIR [Peptide A6S-2-D1-IR]”, the “Comparisons IGF-1R/IR” value at IGF-1R was 2.6. Also, on IR, the “Comparisons IR/IGF-1R” value is recorded as 0.4. Turning to “VGYQGQGDENFYDWFIRQVSGRLGVQ [H2CA-4-F5-IGFR]”, the “Comparisons IGF-1R/IR” value at IGF-1R is reported as 12.3. On IR, the “Comparisons IR/IGF-1R” value is 0.1. For “VNQSGSIHENFYDWFERQVSHQRGVR [H2CA-4-F10-IGFR]”, in that order: 5.9 and 0.2.

On to “VVTPVNFYRALEALVRG.RLG (VVTPVNFYRALEALVRGXRLG; not fully specified; printed as VVTPVNFYRALEALVRG.RLG; X: residue not identified in the source; ends and bridges not checked) [20E2B-2-B11-IGFR]”, for which the “Comparisons IGF-1R/IR” value with IGF-1R worked out at 9.4. In the assay with IR, the “Comparisons IR/IGF-1R” value is reported as 0.1. For the compound W.GYAWLS [40F-4-D10-IGFR], the “Comparisons IGF-1R/IR” value at IGF-1R is reported as 11.7. For the same compound, the “Comparisons IR/IGF-1R” value at IR came to 0.1. For “YRGMLVLGRISDGAG#VASEPPARIGRKVFAVNFYDWFV [Peptide A6L-0-E4-IR]”, in that order: 13.0 and 0.1. Regarding “YRGMLVLGRISGGAGKAASERPARIGQKVSAVNFYDWFV [Peptide A6L-0-H3-IR]”, the “Comparisons IGF-1R/IR” value on IGF-1R stood at 13.0. Moreover, at IR, the “Comparisons IR/IGF-1R” value stood at 0.1.

In the case of “YRGMLVLGRSSDGAGKVAFERPARIGQTVFAVNFYDWFV [Peptide A6L-0-E6-IR]”, on IGF-1R, the “Comparisons IGF-1R/IR” value is recorded as 17.0. Moreover, the “Comparisons IR/IGF-1R” value on IR came out at 0.1. For “YSCGDGFYSLLSDLLGGQFRC [20E2B-4-H12-IGFR]”, in that order: 12.8 and 0.1.

(Values after patent US20070004634A1 (Novo Nordisk A/S, priority 1998, published 2007).)
